From patent US7994173B2, “2-piperazin-1-yl-3H-imidazo[4,5-b]pyridine derivatives” (Janssen Pharmaceutica N.V., priority 2007, dated 2011) come the findings set out here.

Where a name gives a salt, the structure may show the parent alone.

As a reminder, the melting point is the temperature of the solid-liquid transition.

Data set [1] relates to fundus of the stomach (gastric tone). The data set can be described thus: Gastric tone measured by an electronic barostat in conscious dogs. The data set is classed as in vivo, dog (female beagle). As to conditions: for Maximum change in volume (Table C-2): I.D.
For data set [2] the test system is unchanged. The data set is described as above. The data set is classed as in vivo, dog (female beagle). As to conditions: for Maximum change in volume (mean): relaxation of the fundus, 1 hour after I.D. administration, 0.63 mg/kg. Here is the method: Gastric tone cannot be measured by manometric methods. Therefore an electronic barostat was used. This allows the study of the physiological pattern and regulation of gastric tone in conscious dogs and the influence of test-compounds on this tone. The barostat consists of an air injection system which is connected by a double-lumen 14-French polyvinyl tube to an ultrathin flaccid polyethylene bag (maximal volume: ±700 ml). Variations in gastric tone were measured by recording changes in the volume of air within an intragastric bag, maintained at a constant pressure. The barostat maintains a constant pressure (preselected) within a flaccid air-filled bag introduced into the stomach, changing the volume of air within the bag by an electronic feedback system. Thus, the barostat measures gastric motor activity (contraction or relaxation) as changes in intragastric volume (decrease or increase resp.) at a constant intragastric pressure. The barostat consists of a strain gauge linked by an electronic relay to an air injection-aspiration system. Both the strain gauge and the injection system are connected by means of double-lumen polyvinyl tube to an ultrathin polyethylene bag. A dial in the barostat allows selection of the pressure level to be maintained within the intragastric bag. Female beagle dogs, weighing 7-17 kg, were trained to stand quietly in Pavlov frames. They were implanted with a gastric cannula under general anaesthesia and aseptic precautions. After a median laparotomy, an incision was made through the gastric wall in longitudinal direction between the greater and the lesser curve, 2 cm above the nerves of Latarjet. The cannula was secured to the gastric wall by means of a double purse string suture and brought out via a stub wound at the left quadrant of the hypochondrium. Dogs were allowed a recovery period of two weeks. At the beginning of the experiment, the cannula was opened in order to remove any gastric juice or food remnants. If necessary, the stomach was cleansed with 40 to 50 ml lukewarm water. The ultrathin bag of the barostat was positioned into the fundus of the stomach through the gastric cannula. In order to ensure easy unfolding of the intragastric bag during the experiment, a volume of 150-200 ml was injected into the bag by raising the pressure to maximally 14 mm Hg (about 1.87 kPa) very briefly. This procedure was repeated twice. After a stabilization period of 60 minutes at an intragastric pressure of 6 mmHg (about 0.81 kPa), the test compound was administered subcutaneously, or intraduodenally, at 2 mmHg (0.27 kPa). […] Table C-1 summarizes the mean maximal change in volume (in ml) on relaxation of the fundus, 1 hour after I.D. administration of the test compound (0.63 mg/kg).

Compound `CN(C)c1ccnc2c1nc(N1CCN(Cc3ccccc3)CC1)n2C` [Co. No. 9] returned a melting point of 128 °C.

Compound `Cn1c(N2CCN(Cc3ccc4c(c3)OCO4)CC2)nc2cccnc21` [Co. No. 10] yielded a melting point of 114 °C. For `Cn1c(C2CCCN(Cc3ccccc3)CC2)nc2cccnc21` (centres unmarked) [(72) of WO-01/46189, reference compound], the “Maximum change in volume (Table C-2)” value in data set [1] (dose 0.16 mg/kg) stood at 45 mL.

Compound `Cn1c(N2CCNCC2)nc2cccnc21` returned a melting point of 136 °C. `Cn1c(N2CCN(Cc3cccnc3)CC2)nc2cccnc21` [compound 3]: in data set [2], the “Maximum change in volume (mean)” value came to 154 mL. On the same count and under the same terms, next, `Cn1c(N2CCN(Cc3ccc4c(c3)OCO4)CC2)nc2cccnc21` [compound 10]: 251 mL; `CN(C)c1ccnc2c1nc(N1CCN(Cc3ccccc3)CC1)n2C` [compound 9]: 185 mL. Take `Cn1c(N2CCNCC2)nc2cccnc21` [compound 14]: the “Maximum change in volume (mean)” value in data set [1] (relaxation of the fundus, 1 hour after I.D. administration, administered at 0.16 mg/kg (footnote *)) was 154.6 mL. Take `Cn1c(N2CCN(Cc3ccccc3)CC2)nc2cccnc21` [compound 11]: the “Maximum change in volume (Table C-2)” value came to 220 mL in data set [2] (I.D., dose 0.63 mg/kg); 83 mL in data set [1] (dose 0.0025 mg/kg); 157 mL in data set [1] (dose 0.01 mg/kg); 146 mL in data set [1] (dose 0.04 mg/kg); 180 mL in data set [1] (dose 0.16 mg/kg). Moreover, the “Maximum change in volume (mean)” value in data set [2] came to 220 mL. Take `Cn1c(N2CCN(Cc3ccccc3)CC2)nc2cccnc21` [Co. No. 11]: the melting point turned out to be 98 °C.

`Cn1c(N2CCN(Cc3cccnc3)CC2)nc2cccnc21` (as salt: HCl) (hydrate or solvate) [Co. No. 3]: the melting point was found to be 182 °C. `CCCc1nc2c(cc1C)nc(N1CCN(Cc3ccccc3)CC1)n2C` [compound 1]: in data set [2], the “Maximum change in volume (mean)” value was 237 mL.
